Drawing on ChEMBL document CHEMBL4334493, “14- and 15-membered lactone macrolides and their analogues and hybrids: structure, molecular mechanism of action and biological activity” (Eur J Med Chem, 2019), this text covers MIC and MIC50 for 6 compounds.

Common to all, as to assay type: functional
Experiment [1] concerns Haemophilus influenzae. The experiment in a line: Antibacterial activity against Haemophilus influenzae 49247.
Experiment [2] concerns Haemophilus influenzae. The experiment can be described thus: Antibacterial activity against Haemophilus influenzae 33929.
Experiment [3] has as its system Streptococcus pneumoniae. The experiment can be described thus: Antibacterial activity against Streptococcus pneumoniae AB11.
Experiment [4] deals with Streptococcus pneumoniae. The experiment can be described thus: Antibacterial activity against Streptococcus pneumoniae ATCC 49619.
The test system of experiment [5] is Streptococcus pneumoniae. The experiment in a line: Antibacterial activity against Streptococcus pneumoniae B1.
The subject of experiment [6] is Streptococcus pneumoniae. The experiment can be described thus: Antibacterial activity against Streptococcus pneumoniae A22072.
Experiment [7] deals with Streptococcus pyogenes. The experiment in a line: Antibacterial activity against Streptococcus pyogenes R2.
The subject of experiment [8] is Streptococcus pyogenes. The experiment can be described thus: Antibacterial activity against Streptococcus pyogenes S2.
The subject of experiment [9] is Staphylococcus aureus. The experiment in a line: Antibacterial activity against Staphylococcus aureus ATCC 25923.
The test system of experiment [10] is Staphylococcus aureus. The experiment in a line: Antibacterial activity against Staphylococcus aureus.
The test system of experiment [11] is Staphylococcus epidermidis. The experiment can be described thus: Antibacterial activity against methicillin resistant Staphylococcus epidermidis by broth microdilution method. (Dilution methods test growth across graded concentrations, often in twofold steps.)
Experiment [12] has as its system Staphylococcus aureus. The experiment in a line: Antibacterial activity against methicillin susceptible and erythromycin resistant Staphylococcus aureus by broth microdilution method.
Experiment [13] deals with Streptococcus pneumoniae. The experiment in a line: Antibacterial activity against Streptococcus pneumoniae by broth microdilution method.
Experiment [14] relates to Staphylococcus haemolyticus. The experiment can be described thus: Antibacterial activity against Staphylococcus haemolyticus by broth microdilution method.
Experiment [15] has as its system Haemophilus influenzae. The experiment can be described thus: Antibacterial activity against Haemophilus influenzae by broth microdilution method.
Experiment [16] deals with Staphylococcus aureus. The experiment can be described thus: Antibacterial activity against methicillin resistant Staphylococcus aureus by broth microdilution method.
Experiment [17] concerns Enterococcus faecalis. The experiment can be described thus: Antibacterial activity against Enterococcus faecalis by broth microdilution method.
Experiment [18] deals with Staphylococcus epidermidis. The experiment in a line: Antibacterial activity against methicillin susceptible Staphylococcus epidermidis by broth microdilution method.
Experiment [19] has as its system Staphylococcus aureus. The experiment in a line: Antibacterial activity against methicillin/erythromycin susceptible Staphylococcus aureus by broth microdilution method.
Experiment [20] deals with Haemophilus influenzae. The experiment can be described thus: Antibacterial activity against Haemophilus influenzae 11Q373 by broth microdilution method.
In experiment [21] the test system is Staphylococcus epidermidis. The experiment in a line: Antibacterial activity against Staphylococcus epidermidis 11C176 by broth microdilution method.
For experiment [22], the system named is Staphylococcus epidermidis. The experiment can be described thus: Antibacterial activity against Staphylococcus epidermidis 11X315 by broth microdilution method.
The test system of experiment [23] is Streptococcus pneumoniae. The experiment in a line: Antibacterial activity against Streptococcus pneumoniae ATCC 49619 by broth microdilution method.
For experiment [24], the system named is Staphylococcus aureus. The experiment in a line: Antibacterial activity against Staphylococcus aureus ATCC 29213 by broth microdilution method.
The subject of experiment [25] is Streptococcus pneumoniae. The experiment can be described thus: Antibacterial activity against Streptococcus pneumoniae 11J011 by broth microdilution method.
The test system of experiment [26] is Staphylococcus aureus. The experiment in a line: Antibacterial activity against Staphylococcus aureus 11B117 by broth microdilution method.
The test system of experiment [27] is Moraxella catarrhalis. The experiment can be described thus: Antibacterial activity against Moraxella catarrhalis by broth microdilution method.
Experiment [28] has as its system Haemophilus influenzae. The experiment can be described thus: Antibacterial activity against Haemophilus influenzae ATCC 49247 by broth microdilution method.
Experiment [29] relates to Staphylococcus aureus. The experiment in a line: Antibacterial activity against methicillin resistant Staphylococcus aureus 7662.
Experiment [30] deals with Staphylococcus aureus. The experiment in a line: Antibacterial activity against methicillin resistant Staphylococcus aureus 33591.

Each structure is given as a SMILES string. Values after ≈ are worked out from the molar mass of the structure shown.

With `CC[C@H]1OC(=O)[C@H](C)C(=O)[C@H](C)[C@@H](O[C@@H]2O[C@H](C)C[C@H](N(C)C)[C@H]2O)[C@@]2(C)C[C@@H](C)C(=O)[C@H](C)[C@@H](OC/C(=N\OCc3ccc(-c4nc(N)cs4)cn3)CO2)[C@]1(C)O`, the figures for the MIC in [1] and in experiment [2] were 1 µg/mL (≈ 1.2 µM) and 2 µg/mL (≈ 2.4 µM), respectively.

For the compound `CC[C@H]1OC(=O)[C@H](C)[C@@H](O[C@H]2C[C@@](C)(OC)[C@@H](OC(=O)NCc3cccc(Cl)c3)[C@H](C)O2)[C@H](C)[C@@H](OC2O[C@H](C)C[C@H](N(C)C)[C@H]2O)[C@]2(C)C[C@@H](C)/C(=N\[C@H](C)[C@H]3OC(=O)O[C@@]31C)O2` (stereo partly specified), the MIC in [3] was found to be 16 µg/mL (≈ 17.3 µM); in experiment [4] it was 0.03 µg/mL (≈ 0.0324 µM); in [5] it was 16 µg/mL (≈ 17.3 µM); in experiment [6] it was 4 µg/mL (≈ 4.33 µM); in experiment [7], 64 µg/mL (≈ 69.2 µM); in experiment [8], 1 µg/mL (≈ 1.08 µM). Further, the MIC turned out to be 8 µg/mL (≈ 8.65 µM) in [9] and 32 µg/mL (≈ 34.6 µM) in experiment [10].

As to `CC[C@H]1OC(=O)[C@H](C)C(=O)[C@H](C)[C@@H](O[C@@H]2O[C@H](C)C[C@H](N(C)C)[C@H]2O)[C@](C)(OC)C[C@@H](C)C(=O)[C@H](C)[C@H]2N(CCCOC(=O)Nc3cccc(C)c3)C(=O)O[C@]12C`, the MIC50 was 1 to 128 µg/mL (≈ 1.24 to 159 µM) in [11]; 0.25 µg/mL (≈ 0.311 µM) in experiment [12]; 0.062 to 0.125 µg/mL (≈ 0.0771 to 0.155 µM) in experiment [13]; 1 to 2 µg/mL (≈ 1.24 to 2.49 µM) in experiment [14]; 4 to 8 µg/mL (≈ 4.98 to 9.95 µM) in [15]; 128 to 256 µg/mL (≈ 159 to 318 µM) in experiment [16]. Also, the MIC50 in experiment [17] was greater than 256 µg/mL; in [18], 0.031 µg/mL (≈ 0.0386 µM); in [19], 0.125 µg/mL (≈ 0.155 µM).

With `CC[C@H]1OC(=O)[C@H](C)C(=O)[C@H](C)[C@@H](O[C@@H]2O[C@H](C)C[C@H](N(C)C)[C@H]2O)[C@](C)(OC)C[C@@H](C)C(=O)[C@H](C)[C@H]2N(CCCN(c3cnc4ccccc4c3)S(=O)(=O)c3ccc(C)cc3)C(=O)O[C@]12C`, the MIC50 in [20] was found to be 16 µg/mL (≈ 16.8 µM); in experiment [21] it was 1 µg/mL (≈ 1.05 µM); in [22] it was 1 µg/mL (≈ 1.05 µM); in [23], 0.25 µg/mL (≈ 0.263 µM); in experiment [24], 2 µg/mL (≈ 2.1 µM); in experiment [25], 2 µg/mL (≈ 2.1 µM). In addition, the MIC50 in [26] is greater than 64 µg/mL; in experiment [27] it was 2 µg/mL (≈ 2.1 µM); in experiment [28], 32 µg/mL (≈ 33.6 µM).

`CC[C@H]1OC(=O)[C@H](C)C(=O)[C@H](C)[C@@H](O[C@@H]2O[C@H](C)C[C@H](N(C)C)[C@H]2O)[C@](C)(OC)C[C@@H](C)C(=O)[C@H](C)[C@H]2N(CCCN(Cc3ccccc3)c3cnc4ccccc4c3)C(=O)O[C@]12C`: the MIC50 in experiment [20] stood at 2 µg/mL (≈ 2.25 µM); in [21] it was 0.25 µg/mL (≈ 0.282 µM); in experiment [22] it was 0.25 µg/mL (≈ 0.282 µM); in experiment [23], 0.031 µg/mL (≈ 0.0349 µM); in experiment [24], 0.25 µg/mL (≈ 0.282 µM); in [25], 2 µg/mL (≈ 2.25 µM). Moreover, the MIC50 in experiment [26] is greater than 64 µg/mL; in [27], 0.25 µg/mL (≈ 0.282 µM); in [28], 2 µg/mL (≈ 2.25 µM).

For the compound `CCC(=O)/N=C1\[C@H](C)C[C@@]2(C)OC/C(=N/OCc3csc(-c4cccc(N)n4)n3)CO[C@H]([C@H]1C)[C@](C)(O)[C@@H](CC)OC(=O)[C@@](C)(F)C(=O)[C@H](C)[C@H]2O[C@@H]1O[C@H](C)C[C@H](N(C)C)[C@H]1O`, the MIC worked out at 1 µg/mL (≈ 1.1 µM) in [1], 4 µg/mL (≈ 4.42 µM) in experiment [2], 1 µg/mL (≈ 1.1 µM) in experiment [29] and 2 µg/mL (≈ 2.21 µM) in experiment [30].
